Experimental data taken from patent US11364260B2, “Methods and compositions for administration of iron” (American Regent, Inc., priority 2006, dated 2022).
Read-outs that look alike come from different tables or passages of the source.

Legend:
[1] = PET pharmacokinetic study of 52Fe/59Fe labelled VIT-45 after i.v. administration; format: in vivo, human
Excerpt: See e.g., Beshara et al. (2003) Br. J. Haematol. 120(5): 853-859.
(§1) There was negligible renal elimination.

dextran antibodies = experiment: Reaction with dextran antibodies / dextran antigenicity test
[2] = Core and particle size of iron carbohydrate complexes (electron micrographs); format: physicochemical
Excerpt: FIG. 1A-FIG. 1C are a series of electron micrographs that depict the particle size of three iron carbohydrate complexes. […] FIG. 1B is an electron micrograph depicting the particle size of Venofer® (an iron sucrose).
It is within the skill of the art to test various characteristics of iron carbohydrate complexes as so determine amenability to use in the methods described herein. For example, pH and osmolarity are straightforward determinations performed on a sample formulation. Likewise, techniques such as electron micrograph imaging, transmission electron microscopy, and atomic force microscopy provide direct methods to analyze both iron core and particle size. See e.g., FIG. 1; Table 1. The stability of the carbohydrate complex can be assessed through physicochemical properties such as kinetic characteristics, thermodynamic characteristics, and degradation kinetics. See, Geisser et al. (1992) Arzneimittelforschung 42(12):1439-1452. […] Pharmacokinetics can be assessed, for example, by iron tracer experiments. Hypersensitivity reactions can be monitored and assessed as described in, for example, Bailie et al. (2005) Nephrol. […] Safety, efficacy, and toxicity in human subjects can be assessed, for example, as described in Spinowitz et al. (2005) Kidney Intl. […]

rats [3] = experiment: Single dose toxicity in rats; format: in vivo
[4] = Iron (III) Control Release Test; format: physicochemical
patients = experiment: Efficacy studies: pharmacodynamic effects (serum iron, TfS, serum ferritin); format: in vivo, human; settings: single and repeated doses
Excerpt: The increase in serum ferritin levels illustrated the replenishment of the depleted iron stores, which is a well-identified and desired effect of iron therapy.

[5] = tested on: patients with iron deficiency anemia or renal anemia; experiment: Safety assessments in patients with iron deficiency anemia and renal anemia; format: in vivo, human
mice = experiment: Single dose toxicity in mice
[6] = In vitro and in vivo mutagenicity tests
rabbit = experiment: Intra-arterial, perivenous, intravenous tolerance studies; format: in vivo
[7] = Single dose toxicity (LD50, acute toxicity); settings: in vivo
[8] = pH and osmolarity of the iron carbohydrate complex; format: physicochemical
Excerpt: It is within the skill of the art to test various characteristics of iron carbohydrate complexes as so determine amenability to use in the methods described herein. For example, pH and osmolarity are straightforward determinations performed on a sample formulation. Likewise, techniques such as electron micrograph imaging, transmission electron microscopy, and atomic force microscopy provide direct methods to analyze both iron core and particle size. See e.g., FIG. 1; Table 1. The stability of the carbohydrate complex can be assessed through physicochemical properties such as kinetic characteristics, thermodynamic characteristics, and degradation kinetics. See, Geisser et al. (1992) Arzneimittelforschung 42(12):1439-1452. Useful techniques to assess physical and electronic properties include absorption spectroscopy, X-ray diffraction analysis, transmission electron microscopy, atomic force microscopy, and elemental analysis. See, Kudasheva et al. (2004) J. Inorg. Biochem. 98:1757-1769. Pharmacokinetics can be assessed, for example, by iron tracer experiments. Hypersensitivity reactions can be monitored and assessed as described in, for example, Bailie et al. (2005) Nephrol. Dial. Transplant 20(7):1443-1449. Safety, efficacy, and toxicity in human subjects can be assessed, for example, as described in Spinowitz et al. (2005) Kidney Intl. 68:1801-1807.

patients (Hb levels) = experiment: Multiple dose efficacy study, Cohorts 1 and 2 (Hb levels); format: in vivo, human
Excerpt: Efficacy of iron replacement therapy is interpreted mainly in terms of the ability to normalize Hb levels and iron stores. […] In one study, 37% and 48% of patients in Cohorts 1 and 2, respectively, had achieved normal Hb levels at the 4-week follow-up visit, and 75% and 73%, respectively, had achieved a ≥20 g/L increase in Hb on at least 1 occasion.

subjects with anemia [9] = settings: human, in vivo
Excerpt: (§2) Study A was a single-center, single-dose escalation, randomized, double-blind, placebo-controlled pharmacokinetic study. Subjects were male and female, between 18 and 45 years of age, inclusive, with mild iron-deficiency anemia. […] Examined pharmacokinetic parameters included total serum iron and pharmacodynamic (serum ferritin and transferrin, iron binding capacity, % TSATpost, hemoglobin, reticulocyte, and serum transferrin receptor concentrations) endpoints. Examined safety parameters included adverse events, clinical laboratory evaluations, vital signs, ECG, and physical examinations.
(§3) Study B was a single-center, single-dose, open label, uncontrolled pharmacokinetic study. Subjects were between 18 and 75 years of age with iron-deficiency or renal anemia with no other cause of anemia. Inclusion criteria included hemoglobin concentration between 9 and 13 g/dL, no blood transfusions in the previous 3 months, and no history of treatment with intravenous iron in the last 2 weeks. […] Examined primary pharmacokinetic parameters included the distribution of ^52Fe and incorporation of ^59Fe into red blood cells. Examined safety parameters included adverse events, clinical laboratory evaluations, vital signs, and physical examinations.
(§4) Study C was an open-label, multicenter, randomized, multiple-dose, active-controlled postpartum anemia study. […] Where screening serum transferrin saturation (TSAT) was 20% or screening ferritin was 50 ng/mL, dosage=pre-pregnancy weight (kg)×(15−baseline hemoglobin [g/dL])×2.4+500 mg. Where screening TSAT was >20% and screening ferritin was >50 ng/mL, dosage=pre-pregnancy weight (kg)×(15−baseline hemoglobin [g/dL])×2.4. […] For primary efficacy, “success” was defined as an increase in hemoglobin of ≥2 g/dL anytime between baseline and end of study or time of intervention, while “failure” was defined as <2 g/dL increase in hemoglobin at all times between baseline and end of study or time of intervention. Examined safety parameters included adverse events, clinical laboratory evaluations, vital signs, and physical examinations.
(§5) Study D was a multicenter, open-label, randomized, active-controlled, multiple-dose postpartum anemia study. Subjects were adult women ≥18 years old with postpartum anemia within 6 days after delivery. Treatment was administered once-weekly for a maximum of 3 infusions. […] Patients ≤66 kg received a minimum dose of 200 mg and a maximum dose of 15 mg iron/kg during each infusion. Patients >66 kg received a dose of 1000 mg on the first dosing occasion, and a minimum dose of 200 mg and a maximum dose of 1000 mg at each subsequent dosing. Doses of 200-400 mg were diluted in 100 cc NSS and 500-1000 mg were diluted in 250 cc NSS. Primary efficacy was examined as change from baseline levels of hemoglobin to Week 12. Examined safety parameters included adverse events in the mother and breast-fed infant, adverse events leading to discontinuation of treatment, vital signs, 12-lead electrocardiogram (ECG), physical examinations, and clinical laboratory panels.
(§6) Study E was a multicenter, open-label, randomized, active-controlled, multiple-dose hemodialysis-associated anemia study.

subjects with anemia [10] = experiment: Integrated safety studies (10 clinical studies A-J)
Excerpt: as §2, §3, §4, §5, §6

dogs [11] = experiment: Pre-clinical 13-week cumulative dose study in dogs; format: in vivo; settings: over 13 weeks
rats [12] = experiment: Pre-clinical 13-week cumulative dose study in rats; format: in vivo; settings: over 13 weeks
[13] = tested on: patients receiving regular hemodialysis; experiment: Multiple dose efficacy study in patients receiving regular hemodialysis; format: in vivo, human
Excerpt: However, elevated levels of ferritin and TfS indicating iron overload were avoided. In both of these studies, there was a gradual decrease in transferrin over time, also indicating successful iron replacement.

dogs [14] = experiment: Single-dose toxicity studies, intravenous, dogs; format: in vivo
rodents = experiment: Single-dose toxicity studies, intravenous, rodents; format: in vivo
[15] = Pharmacokinetic studies (total serum iron) in patients with iron deficiency anemia; format: in vivo, human
Excerpt: as §1

[16] = in vivo; cited from earlier work
[17] = isotonic; cited from earlier work
[18] = light scattering; cited from earlier work
[19] = calculated dose/first-dose 1,000 mg studies

polynuclear iron (III)-hydroxide 4(R)-(poly-(1→4)-O-α-D-glucopyranosyl)-oxy-2(R),3(R),5(R),6-tetrahydroxy-hexanoate [VIT-45]
calculated terminal half-life (t1/2) ([1]; i.v., patients): approximately 16 hours | distribution after intravenous administration ([1]; in vivo, iv): mainly found in the liver, spleen, and bone marrow | reaction with dextran antibodies (dextran antibodies): does not react with dextran antibodies | specific responses in dextran antigenicity test (dextran antibodies): no specific responses | Size of the Particle +/- SEM, Iron core [2]: 4.4 ± 1.4 nm | Size of the Particle +/- SEM, Total Particle [2]: 6.7 ± 2.5 nm | highest non-lethal dose level (rats [3]): 1000 mg iron/kg b.w. | Iron (III) Control Release Test T75 [4]: 117.8 min | main pharmacodynamic effects (patients): transient elevations of serum iron levels, TfS and serum ferritin | iron overload ([5]; dosing schedules of the studies): Iron overload was avoided | deaths attributed to treatment ([5]; repeated-dose studies): no deaths | laboratory values reported as treatment-related treatment-emergent adverse events ([5]; repeated-dose studies): 6 patients | patients who experienced serious adverse events (considered not related) ([5]; repeated-dose studies): 10 patients | withdrawals considered possibly related to treatment (allergic skin reactions) ([5]; repeated-dose studies): 2 withdrawals | serious adverse events or withdrawals due to adverse events ([5]; single-dose studies): no serious adverse events or withdrawals | highest non-lethal dose level (mice): 1000 mg iron/kg b.w. | signs of illness (mice; single dose 250 mg iron/kg b.w. injected within 2 seconds): no signs of illness | clastogenic, mutagenic, chromosomal damage or bone marrow cell toxicity [6]: no evidence | treatment-related local tissue irritation (rabbit): No treatment-related local tissue irritation | acute toxicity relative to iron sucrose [7]: one-fifth | osmolarity [8]: physiological osmolarity | patients who achieved a ≥20 g/L increase in Hb on at least 1 occasion (patients (Hb levels); Cohort 1): 75% | patients who achieved normal Hb levels (patients (Hb levels); Cohort 1, 4-week follow-up visit): 37% | patients who achieved a ≥20 g/L increase in Hb on at least 1 occasion (patients (Hb levels); Cohort 2): 73% | patients who achieved normal Hb levels (patients (Hb levels); Cohort 2, 4-week follow-up visit): 48% | changes in vital signs evaluations (subjects with anemia [9]): no clinically meaningful changes | deaths attributed to treatment (subjects with anemia [9]): no deaths | drug-related mild or moderate hypotension (subjects with anemia [9]): 0.2% | drug-related mild or moderate hypotension, number of subjects (subjects with anemia [9]): 4 subjects | incidence of drug-related treatment-emergent adverse events of hypersensitivity (subjects with anemia [9]): 0.2% | median time to recovery of blood phosphate (subjects with anemia [9]): approximately 2 weeks | overall incidence of treatment-emergent adverse events, 200 mg versus 1000 mg doses (subjects with anemia [9]): similar | treatment-emergent adverse events indicative of potential allergic reactions (rash, pruritus, urticaria) (subjects with anemia [9]): < 2% | incidence of premature discontinuation due to adverse events (subjects with anemia [10]): 2.1% | treatment-emergent adverse event: abdominal pain (subjects with anemia [10]; 1095 VIT-45 subjects): 2.5% | treatment-emergent adverse event: blood phosphate decreased (subjects with anemia [10]; 1095 VIT-45 subjects): 2.4% | treatment-emergent adverse event: headache (subjects with anemia [10]; 1095 VIT-45 subjects): 8.6% | treatment-emergent adverse event: hypertension (subjects with anemia [10]; 1095 VIT-45 subjects): 2.2% | treatment-emergent adverse event: hypotension (subjects with anemia [10]; 1095 VIT-45 subjects): 2.0% | treatment-emergent adverse event: nasopharyngitis (subjects with anemia [10]; 1095 VIT-45 subjects): 2.0% | treatment-emergent adverse event: nausea (subjects with anemia [10]; 1095 VIT-45 subjects): 2.4% | incidence of other serious adverse events (subjects with anemia [10]; all completed multicenter studies): 3% | drug-related treatment-emergent adverse event: blood phosphate decreased (subjects with anemia [10]; [19]): 3.3% | drug-related treatment-emergent adverse event: headache (subjects with anemia [10]; [19]): 3.9% | incidence of adverse events associated with investigations (subjects with anemia [10]; [19]): 9.1% | incidence of gastrointestinal disorders (subjects with anemia [10]; [19]): 15.2% | incidence of skin and subcutaneous tissue disorders (subjects with anemia [10]; [19]): 7.3% | incidence of treatment-emergent adverse events on the first day of dosing (subjects with anemia [10]; [19]): 6.8% | overall incidence of treatment-emergent adverse events (subjects with anemia [10]; [19]): 49.5% | incidence of adverse events leading to discontinuation (subjects with anemia [10]; completed multicenter studies): 1.8% | incidence of gastrointestinal events (subjects with anemia [10]; completed multicenter studies): 12.8% | incidence of premature discontinuations (subjects with anemia [10]; completed multicenter studies): 10% | overall incidence of treatment-emergent adverse events (subjects with anemia [10]; completed multicenter studies): 49.5% | serious adverse events or withdrawals due to related adverse events (subjects with anemia [10]; open label clinical trials, about 1700 subjects, up to 1,000 mg over 15 minutes i.v.): no serious adverse events or withdrawals | incidence of other serious adverse events (subjects with anemia [10]; placebo-controlled, single-dose crossover study): 0.3% | time after initial dose at which decreases in blood phosphate were apparent (subjects with anemia [10]; transient, asymptomatic): approximately 7 days | cumulative dose with no observed adverse effect level (clinical signs of iron accumulation in liver, spleen, kidneys) (dogs [11]): up to 117 mg iron/kg body weight | cumulative dose with no observed adverse effect level (clinical signs of iron accumulation in liver, spleen, kidneys) (rats [12]): up to 117 mg iron/kg body weight | patients who achieved an increase of Hb of ≥10 g/L at any point during the study [13]: 61.7% | safe and tolerated intravenous dose relative to 1,000 mg iron once weekly in humans (dogs [14]): up to 60 times | safe and tolerated intravenous dose relative to 1,000 mg iron once weekly in humans (rodents): up to 60 times | maximal total serum iron concentration (Cmax) ([15]; 500 mg dose): approximately 150 μg/mL | maximal total serum iron concentration (Cmax) ([15]; 1000 mg dose): ~320 µg/mL | renal elimination ([15]; human, in vivo): negligible

polyglucose sorbitol carboxymethyl ether-coated non-stoichiometric magnetite [ferumoxytol]
blood half-life [16]: 10 to 14 h | osmolarity [17]: 297 mOsm/kg | average colloidal particle size [18]: about 30 nm

ferrous sulfate [oral iron, reference compound]
incidence of drug-related treatment-emergent adverse events of hypersensitivity (subjects with anemia [9]): 0.2% | incidence of premature discontinuation due to adverse events (subjects with anemia [10]): 3.1% | incidence of adverse events associated with investigations (subjects with anemia [10]; [19]): 3.9% | incidence of gastrointestinal disorders (subjects with anemia [10]; [19]): 31.0% | incidence of skin and subcutaneous tissue disorders (subjects with anemia [10]; [19]): 2.4% | incidence of treatment-emergent adverse events on the first day of dosing (subjects with anemia [10]; [19]): 2.7% | overall incidence of treatment-emergent adverse events (subjects with anemia [10]; [19]): 51.2% | incidence of adverse events leading to discontinuation (subjects with anemia [10]; completed multicenter studies): 2.1% | incidence of gastrointestinal events (subjects with anemia [10]; completed multicenter studies): 31.0% | incidence of premature discontinuations (subjects with anemia [10]; completed multicenter studies): 9.6% | overall incidence of treatment-emergent adverse events (subjects with anemia [10]; completed multicenter studies): 51.2%
